According to patent US9884031B2, “Use of HDAC inhibitors for treatment of cardiac rhythm disorders” (THE TRUSTEES OF THE UNIVERSITY OF PENNSYLVANIA, priority 2007, dated 2018):
“Also recorded” adds a separate entry of the source. Marks after values point to notes of the source that are not given here.

Legend:
[1] = system: Hop transgenic mice (Hop^Tg); test: In-vivo electrophysiology study: inducible arrhythmias by programmed electrical stimulation; parameters: species or system mouse
Experimental: An in-vivo electrophysiology study was performed in each mouse to assess atrial and ventricular conduction, refractoriness, and arrhythmia inducibility. Surface ECG recordings and complete in vivo electrophysiological studies (EPS) were obtained from Hop^Tg mice (14-18 weeks old), age-matched non-transgenic littermates and TSA-treated Hop^Tg mice. Each mouse was anesthetized with pentobarbital ([…] IP), and multi-lead ECGs were obtained using 26-gauge subcutaneous electrodes. Temperature was maintained at 32-33° C. A jugular vein cutdown was performed and an octapolar 2-French electrode catheter (CIBer mouse-EP; NuMED, Inc) placed in the right atrium and ventricle under electrogram guidance to confirm catheter position. A programmed digital stimulator (DTU-215A, Bloom Associates Ltd) was used to deliver electrical impulses at approximately twice diastolic threshold. […] ECG channels were filtered from 0.5 to 250 Hz and intracardiac electrograms were filtered from 5 to 400 Hz. ECG intervals were measured by two independent observers blinded to the animal's genotype.
The PR, QRS, RR, and QT intervals were measured in 6 surface-limb ECG leads by 2 independent observers, who were both blinded to the animals' genotype. Intracardiac recordings were obtained during identical pacing and programmed electrical stimulation protocols for all mice by experienced investigators.
Trichostatin A 0.6 mg/kg daily in a volume of 0.2 mL was given by intraperitoneal injection for 14 consecutive days prior to cardiac electrical stimulation in Hop transgenic mice (Hop^Tg) compared with wild-type controls (WT).
Ventricular programmed electrical stimulation induced similar numbers and durations of ventricular tachycardia in 3 of 11 Hop^Tg mice compared to 4 of 12 control mice (P=NS).

[2] = system: Hop transgenic mice (Hop^Tg); test: Invasive hemodynamic measurements; assay type: in vivo, mouse; conditions: for Effect upon LVEDP, systolic contraction (peak positive dP/dt) and diastolic relaxation (peak negative dP/dt), in words: TSA-Hop^Tg vs Hop^Tg, treatment initiated at 12-14 weeks of age
Experimental: Hop^Tg mice 14-18 weeks old were compared with wild-type littermates and TSA treated Hop^Tg mice. Anesthesia was induced with 3% isoflurane and maintained by ventilation with 0.75% isoflurane. Temperature was maintained at 36-37° C. Intracardiac pressures were recorded using a 1.4 French micromanometer catheter (Micro-Tip SPR-671; Millar Instruments) that was zeroed prior to making measurements on each animal in a saline bath. The catheter was inserted via the right carotid artery to record intracardiac pressures and digitized at 2-kHz using a PowerLab/16 SP A/D converter (ADInstruments Ltd.).
(§1) Trichostatin A 0.6 mg/kg daily in a volume of 0.2 mL was given by intraperitoneal injection for 14 consecutive days upon inducible atrial arrhythmias and atrial structurally remodeling in an engineered mouse model with left ventricular hypertrophy and inducible atrial fibrillation. Transgenic mice over-expressing the homeodomain-only protein (Hop^Tg), which promotes cardiac hypertrophy and interstitial fibrosis, were divided into three groups: control, Hop^Tg mice and Hop^Tg mice treated with trichostatin A.
(§2) Hop^Tg mice had higher left ventricular end-diastolic pressure (LVEDP), and reduced peak systolic contraction and diastolic relaxation compared to WT mice. However, trichostatin A had no effect upon the LVEDP, systolic contraction or diastolic relaxation when treatment was initiated in animals aged 12-14 weeks of age. These parameters were similar between Hop^Tg and TSA-Hop^Tg mice, though still abnormal when compared to WT mice. In addition, the heart weight to tibia length ratio (HW/TL) was higher in Hop^Tg and TSA-Hop^Tg mice compared to WT, but there was no difference in the HW/TL between Hop^Tg and TSA-Hop^Tg mice. *P<0.05 compared to WT; ^†P<0.05 compared to TSA-Hop^Tg.

[3] = system: Hop transgenic mice (HopX^Tg); test: Morphometric analysis of hearts (heart weight, atrial weight ratios); assay type: in vivo, mouse; conditions: for Heart weight to tibia length ratio (HW/TL), in words: TSA-Hop^Tg vs Hop^Tg mice
Experimental: as §1, §2

HopX^Tg mice = test: Echocardiographic analysis of ventricular structure and function; assay type: in vivo, mouse
Experimental: To better characterize the effects of TSA upon ventricular structure and function, echocardiographic analysis of HopX^Tg, TSA-HopX^Tg and WT mice was performed. […] However, TSA had no effect upon these parameters as ventricular wall thickness and systolic function were similar between HopX^Tg and TSA-HopX^Tg mice (Table 4), consistent with the hemodynamic analysis of these animals.

[4] = system: Hop transgenic mice (Hop^Tg); test: Masson's trichrome staining for collagen as marker of fibrosis; assay type: in vivo, mouse; conditions: FIG. 1; for Atrial fibrosis (in words): TSA-treated Hop transgenic mice vs untreated
Experimental: Hearts were excised from, washed in 37° C. Dulbecco's 1×PBS, arrested in 50 mmol/L KCl, and fixed in 4% formalin. Fixed hearts were cut transversely and sectioned serially from ventricular apex to base. Two sections (5 μm each) were retained at the beginning of each 50-μm step. Sections were stained with Masson's trichrome stain for collagen as a marker of fibrosis. Quantification of the proportion of fibrosis in each heart was then performed with scientific imaging software (Image-J, National Institutes of Health)) and high-resolution serial scanning technique. Histological sections from the entire left ventricle and both atrium were used for analysis from three different hearts.
as §1

activated TGF-β1 = test: Western blot of atrium: activated TGF-β1; assay type: in vivo, mouse; conditions: TSA-Hop^Tg mice relative to Hop^Tg, FIG. 2E
Experimental: (§3) Adult mouse atrium and ventricle were dissected and homogenized in buffer containing 1% Igepal surfactant, 0.5% deoxycholate sodium, 2% SDS, 5 mmol EDTA (pH=7.4), 1% protease inhibitor cocktail tablet (Roche) with and without phosphatase inhibitor cocktail (Sigma-Aldrich). Samples were cleared of debris by centrifugation at 5000 g for 10 min. and the protein concentration was determined using a BCA protein assay kit (Pierce). Protein samples were run on a 4-12% gradient pre-cast SDS-PAGE gel (Invitrogen), and after electrophoresis were transferred onto PVDF membranes (Millipore) using 0.1% acetic acid/10% methanol as a transfer buffer. Membranes were incubated with primary antibodies in 5% milk and PBS overnight at 4° C. and then washed for 5 min, 4 times with TBS-T solution. […] Results were visualized by enhanced chemiluminescence using a commercially available kit (Western Breeze, Invitrogen) and data were recorded on BioMax-MR film (Kodak, Rochester, N.Y.). Densitometry was determined using the Image-J software package (National Institutes of Health). […]

phospho-ERK1/2 = test: Western blot of atrium: phospho-ERK1/2; assay type: in vivo, mouse; conditions: TSA-Hop^Tg mice relative to Hop^Tg, FIG. 2D
Experimental: as §3

phospho-JNK = test: Western blot of atrium: phospho-JNK; assay type: in vivo, mouse; conditions: between Hop^Tg, TSA-Hop^Tg or control mice, FIG. 2B
Experimental: as §3

phospho-p38-MAPK = test: Western blot of atrium: phospho-p38-MAPK; assay type: in vivo, mouse; conditions: between Hop^Tg, TSA-Hop^Tg or control mice, FIG. 2C
Experimental: as §3

connexin40 = test: Immunoblot analysis of atrial connexin40; assay type: in vivo, mouse; conditions: TSA-treated Hop transgenic mice, FIG. 3A
Experimental: as §3

connexin43 = test: Immunoblot analysis of atrial connexin43; assay type: in vivo, mouse; conditions: WT, Hop and TSA-Hop mice, FIG. 3B
Experimental: as §3

[5] = system: connexin40 and connexin43; test: Distribution of atrial connexins (quantitative confocal immunodetection); assay type: in vivo, mouse; conditions: TSA-treated Hop^Tg mice
Experimental: Mice were heparizined, anesthetized with pentobarbital […] and hearts excised through a sternotomy. Hearts were mounted on a Langendorf apparatus, perfused with Tyrode's solution (composition as in Ref. 21) at 3.0-3.5 milliliter [ml]/minute [min] at a temperature of 36°-37° C. Hearts were perfused with Ca^2+-free Tyrode's solution for 6 min., followed by 12-15 min. of perfusion with Ca^2+-free Tyrode's solution containing: collagenase B, collagenase D (Roche Chemical Co.) and protease (Fraction IV, Sigma Chemical Co.). […]
The area of immunoreactive signal in discrete spots from isolated atrial myocytes was quantified using laser scanning confocal microscopy. Scanning of single optical slices (<1 μm) by confocal laser scanning microscopy was done on the Leica TCS SP2 system using the spectral detection set for simultaneous fluorescence imaging of Alexa488 and DIC imaging with transmitted light to obtain the cell outline. […] Areas were quantified using the count nuclei application in the Metamorph software package (Molecular Devices). The total area of each atrial myocyte was calculated from the DIC images and the area of the connexin immunoreactive spots was calculated from the Alexa488 fluorescent images.

3 week-old HopX^Tg mice = conditions: cited from earlier work
histone acetylation = conditions: TSA 0.6 mg/kg/day, previous studies; cited from earlier work
[6] = system: models of pressure-overload and angiotensin-induced hypertrophy; conditions: cited from earlier work
[7] = TSA 0.6 mg/kg daily IP 14 days, Hop^Tg mice
[8] = TSA 0.6 mg/kg daily IP 14 days, Hop^Tg mice, n = 10
[9] = TSA 0.6 mg/kg daily IP 14 days, Hop^Tg mice, n = 10, mean±SD
[10] = TSA 0.6 mg/kg daily IP 14 days, Hop^Tg mice, n = 8, mean±SD
[11] = TSA 0.6 mg/kg daily IP 14 days, HopX^Tg mice, n = 13, mean±SD
[12] = TSA-treated HopX^Tg mice, n = 4, echocardiography

CC(/C=C/C(=O)NO)=C\[C@@H](C)C(=O)c1ccc(N(C)C)cc1 [TSA, Trichostatin A]
Mice with AT [1, 7]: 2/15 | Mice with VT [1, 7]: 2/15 | Episodes AT (atrial tachycardia) [1, 8]: 5 | Episodes VT (ventricular tachycardia) [1, 8]: 4 | AT CL (atrial tachycardia cycle length) [1, 9]: 47.0 ± 7.2 ms | Duration AT [1, 9]: 0.148 ± 0.110 s | Duration VT [1, 9]: 0.89 ± 1.07 s | VT CL (ventricular tachycardia cycle length) [1, 9]: 50.4 ± 8.6 ms | Mice in which atrial programmed electrical stimulation induced atrial arrhythmia ([1]; TSA-Hop^Tg mice vs 9 of 11 Hop^Tg mice, P<0.01): 2 of 10 | Mice in which ventricular programmed electrical stimulation induced ventricular tachycardia ([1]; TSA-Hop^Tg mice vs Hop^Tg mice, P<0.05): 2 of 10 | Atrial arrhythmia inducibility (in words) ([1]; TSA-treated Hop transgenic mice vs untreated): complete reversal of atrial arrhythmia inducibility | Duration and episodes of atrial fibrillation (in words) ([1]; TSA-treated Hop^Tg mice vs untreated): reduced | Heart rate [2, 10]: 392 ± 63.5 bpm | LV end diastolic pressure [2, 10]: 7.2 ± 2.4* mmHg | LV systolic pressure [2, 10]: 90.6 ± 8.8 mmHg | Peak negative dP/dt [2, 10]: −2267 ± 1320* mmHg/s | Peak positive dP/dt [2, 10]: 6465 ± 1613 mmHg/s | Effect upon LVEDP, systolic contraction (peak positive dP/dt) and diastolic relaxation (peak negative dP/dt), in words [2]: no significant changes | Effect upon LVEDP, systolic contraction (peak positive dP/dt) and diastolic relaxation (peak negative dP/dt), in words ([2]; listed as trichostatin A): no effect | Heart weight [3, 11]: 192.8 ± 15.5* mg | Heart weight/body weight [3, 11]: 7.4 ± 0.67* mg/g | Heart weight to tibia length ratio (HW/TL), in words ([3]; 14-18 week-old): no significant changes; also recorded: no change | Heart weight to tibia length ratio (HW/TL), in words ([3]; 14-18 week-old, listed as trichostatin A): no difference | Atrial weight/tibial length ratio (AW/TL), in words ([3]; TSA-treated HopX^Tg vs HopX^Tg mice, 14-18 week-old): no significant changes; also recorded: no change | Ventricular wall thickness and systolic function, in words (HopX^Tg mice; TSA-HopX^Tg vs HopX^Tg mice, echocardiography): no effect | Intra-ventricle Septum (HopX^Tg mice; [12]): 1.13 ± 0.18 mm | LV Ejection Fraction (HopX^Tg mice; [12]): 87.7 ± 7.00 % | LV Fractional Shortening (HopX^Tg mice; [12]): 53.9 ± 0.50 % | Left Ventricle Posterior Wall (HopX^Tg mice; [12]): 1.10 ± 0.14 mm | Left ventricular wall dimensions, in words (HopX^Tg mice; older 14-18 week-old HopX^Tg mice treated with TSA): no change | Atrial fibrosis (in words) ([4]; listed as Trichostatin A): reduced | Atrial fibrosis (in words) ([4]; listed as trichostatin A): complete reversal of atrial fibrosis | Ventricular interstitial fibrosis (in words) ([4]; three groups incl. TSA-Hop): no obvious ventricular interstitial fibrosis | Activated TGF-β1 protein expression in atrium (activated TGF-β1): further decreased | Phospho-ERK1/2 protein expression in atrium (phospho-ERK1/2): increased | Phospho-JNK protein expression in atrium (phospho-JNK): not different | Phospho-p38-MAPK protein expression in atrium (phospho-p38-MAPK): not different | Atrial connexin40 expression (connexin40): normalized | Atrial connexin43 expression (connexin43): no changes | Distribution of connexin40 and connexin43 in the atrium [5]: restored | Cardiac hypertrophy, in words (3 week-old HopX^Tg mice): partially reduces | Histone acetylation in the heart, in words (histone acetylation): does augment histone acetylation | Myocardial mechanical function, in words [6]: improve
